Active and inactive are the calls of the source. No cut-off for these calls is given here.
Assays:
Liver = experiment: Half life in rat liver S9 fraction at 10 uM by UPLC analysis; format: ADME, subcellular; conditions: s9, 10 µM
[1] = target: Matrix metalloproteinase-14 (Homo sapiens, UniProt P50281)
Description: Competitive inhibition of human MMP14 using fluorogenic substrate by Dixon plot analysis

Stromelysin-1 [2] = target: T1, Stromelysin-1 (Homo sapiens, UniProt P08254)
Target sequence in this assay (P08254 whole entry): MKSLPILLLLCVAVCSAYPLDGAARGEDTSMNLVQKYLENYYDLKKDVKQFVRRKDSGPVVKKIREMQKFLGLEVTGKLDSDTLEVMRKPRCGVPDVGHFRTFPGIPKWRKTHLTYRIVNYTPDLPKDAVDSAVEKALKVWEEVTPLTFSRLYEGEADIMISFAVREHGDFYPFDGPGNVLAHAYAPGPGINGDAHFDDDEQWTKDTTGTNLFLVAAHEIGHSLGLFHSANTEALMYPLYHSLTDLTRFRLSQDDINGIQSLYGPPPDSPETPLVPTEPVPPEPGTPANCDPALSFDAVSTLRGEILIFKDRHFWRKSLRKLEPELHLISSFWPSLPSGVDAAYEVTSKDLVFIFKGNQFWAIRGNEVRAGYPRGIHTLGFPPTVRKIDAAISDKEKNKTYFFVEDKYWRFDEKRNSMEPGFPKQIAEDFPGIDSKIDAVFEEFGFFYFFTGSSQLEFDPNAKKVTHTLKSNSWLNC
Description: Competitive inhibition of human MMP3 using fluorogenic substrate by Dixon plot analysis

[3] = target: T2, Interstitial collagenase (Homo sapiens) (UniProt P03956); experiment: Competitive inhibition of human MMP1 using fluorogenic substrate at 20 uM by Dixon plot analysis
T2 sequence (whole entry): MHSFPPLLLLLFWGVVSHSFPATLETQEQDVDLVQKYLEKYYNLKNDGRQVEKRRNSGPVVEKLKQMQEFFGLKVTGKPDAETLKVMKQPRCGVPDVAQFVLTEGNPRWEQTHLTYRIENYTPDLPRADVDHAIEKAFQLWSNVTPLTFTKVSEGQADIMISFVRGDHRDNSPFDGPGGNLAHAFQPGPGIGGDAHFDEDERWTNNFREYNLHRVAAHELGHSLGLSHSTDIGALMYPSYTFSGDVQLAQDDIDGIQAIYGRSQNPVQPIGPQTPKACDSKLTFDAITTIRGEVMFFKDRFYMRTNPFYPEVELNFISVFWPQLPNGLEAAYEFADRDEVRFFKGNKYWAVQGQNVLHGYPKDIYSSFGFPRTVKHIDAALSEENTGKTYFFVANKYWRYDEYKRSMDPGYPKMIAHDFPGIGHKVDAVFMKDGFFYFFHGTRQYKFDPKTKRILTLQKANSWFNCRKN

Stromelysin-1 [4] = target: T1, Stromelysin-1; experiment: Competitive inhibition of human MMP3 using fluorogenic substrate at 20 uM by Dixon plot analysis
Target sequence in this assay (P08254 100-477 limits assumed): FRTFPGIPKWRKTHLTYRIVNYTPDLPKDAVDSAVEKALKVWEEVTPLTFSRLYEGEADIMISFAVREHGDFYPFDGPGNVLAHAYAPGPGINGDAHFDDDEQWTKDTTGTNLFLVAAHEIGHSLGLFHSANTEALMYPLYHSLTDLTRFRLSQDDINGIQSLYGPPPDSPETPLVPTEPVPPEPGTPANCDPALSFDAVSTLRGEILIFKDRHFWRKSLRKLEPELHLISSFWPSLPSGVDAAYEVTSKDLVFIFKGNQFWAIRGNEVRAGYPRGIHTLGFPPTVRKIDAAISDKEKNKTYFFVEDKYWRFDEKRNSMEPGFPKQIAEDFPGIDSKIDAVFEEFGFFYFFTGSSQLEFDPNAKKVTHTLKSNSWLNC

[5] = target: T3, Matrilysin (Homo sapiens) (UniProt P09237); experiment: Competitive inhibition of human MMP7 using fluorogenic substrate at 20 uM by Dixon plot analysis
T3 sequence (whole entry): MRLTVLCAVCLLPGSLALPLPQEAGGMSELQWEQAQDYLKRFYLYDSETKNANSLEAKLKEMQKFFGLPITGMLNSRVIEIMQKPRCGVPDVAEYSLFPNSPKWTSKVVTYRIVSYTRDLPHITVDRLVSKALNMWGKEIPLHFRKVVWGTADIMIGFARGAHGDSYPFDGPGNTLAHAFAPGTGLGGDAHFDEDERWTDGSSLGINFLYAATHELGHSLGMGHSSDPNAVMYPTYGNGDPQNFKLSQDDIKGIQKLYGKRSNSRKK

[6] = target: 72 kDa type IV collagenase (Homo sapiens, UniProt P08253)
Sequence of 72 kDa type IV collagenase (P08253 whole entry): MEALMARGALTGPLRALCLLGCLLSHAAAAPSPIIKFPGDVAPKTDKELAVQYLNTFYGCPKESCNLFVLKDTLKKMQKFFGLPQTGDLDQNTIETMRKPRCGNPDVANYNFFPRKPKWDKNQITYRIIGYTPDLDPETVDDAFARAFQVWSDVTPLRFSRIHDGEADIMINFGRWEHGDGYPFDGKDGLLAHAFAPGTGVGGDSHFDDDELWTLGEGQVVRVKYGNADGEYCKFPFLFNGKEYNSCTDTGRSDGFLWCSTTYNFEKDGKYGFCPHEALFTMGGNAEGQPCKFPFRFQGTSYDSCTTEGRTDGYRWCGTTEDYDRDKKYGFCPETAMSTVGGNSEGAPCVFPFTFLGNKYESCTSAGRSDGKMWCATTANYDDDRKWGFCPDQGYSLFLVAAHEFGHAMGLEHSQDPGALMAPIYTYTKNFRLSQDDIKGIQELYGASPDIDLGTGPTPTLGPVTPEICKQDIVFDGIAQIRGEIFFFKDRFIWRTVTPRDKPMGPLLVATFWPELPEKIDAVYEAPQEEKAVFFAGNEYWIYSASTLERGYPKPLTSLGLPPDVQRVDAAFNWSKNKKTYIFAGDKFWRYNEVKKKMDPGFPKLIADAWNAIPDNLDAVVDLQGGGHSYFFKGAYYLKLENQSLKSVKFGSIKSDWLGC
Description: Competitive inhibition of human MMP2 using fluorogenic substrate by Dixon plot analysis

[7] = target: Matrix metalloproteinase-9 (Homo sapiens, UniProt P14780)
Sequence of Matrix metalloproteinase-9 (P14780 whole entry): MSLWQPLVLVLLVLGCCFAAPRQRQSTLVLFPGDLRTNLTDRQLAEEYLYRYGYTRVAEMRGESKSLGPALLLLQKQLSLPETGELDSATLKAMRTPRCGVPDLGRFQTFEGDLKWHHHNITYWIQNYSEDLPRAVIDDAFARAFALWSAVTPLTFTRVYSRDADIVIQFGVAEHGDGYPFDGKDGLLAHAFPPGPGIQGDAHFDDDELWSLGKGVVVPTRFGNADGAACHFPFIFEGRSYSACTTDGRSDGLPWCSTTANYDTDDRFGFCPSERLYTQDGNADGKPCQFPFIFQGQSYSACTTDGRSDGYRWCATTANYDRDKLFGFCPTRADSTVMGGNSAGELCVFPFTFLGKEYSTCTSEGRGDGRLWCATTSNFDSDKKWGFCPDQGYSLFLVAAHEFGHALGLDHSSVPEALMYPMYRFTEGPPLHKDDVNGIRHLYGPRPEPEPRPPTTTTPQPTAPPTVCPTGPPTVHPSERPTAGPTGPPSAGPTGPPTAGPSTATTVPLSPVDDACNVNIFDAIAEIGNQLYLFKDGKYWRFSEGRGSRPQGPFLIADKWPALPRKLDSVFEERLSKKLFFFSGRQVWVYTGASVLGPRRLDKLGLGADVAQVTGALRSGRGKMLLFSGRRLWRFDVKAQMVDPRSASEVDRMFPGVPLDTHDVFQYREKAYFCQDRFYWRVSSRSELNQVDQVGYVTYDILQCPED
Description: Competitive inhibition of human MMP9 using fluorogenic substrate by Dixon plot analysis

[8] = target: T2, Interstitial collagenase (Homo sapiens); experiment: Competitive inhibition of human MMP1 using fluorogenic substrate at 100 uM by Dixon plot analysis
[9] = target: T3, Matrilysin (Homo sapiens); experiment: Competitive inhibition of human MMP7 using fluorogenic substrate at 125 uM by Dixon plot analysis
[10] = target: T2, Interstitial collagenase (Homo sapiens); experiment: Competitive inhibition of human MMP1 using fluorogenic substrate at 60 uM by Dixon plot analysis
Stromelysin-1 [11] = target: T1, Stromelysin-1; experiment: Competitive inhibition of human MMP3 using fluorogenic substrate at 60 uM by Dixon plot analysis
Target sequence in this assay (P08254 100-477 limits assumed): as the sequence (P08254 100-477 limits assumed) above

[12] = target: T3, Matrilysin (Homo sapiens); experiment: Competitive inhibition of human MMP7 using fluorogenic substrate at 10 uM by Dixon plot analysis
Liver microsomes [13] = experiment: Drug metabolism in rat liver microsomes assessed as 4-(4-(hydroxymethyl)phenoxy)benzenesulfinic acid formation at 50 uM after 15 mins by tandem MS analysis; format: ADME, Microsome; conditions: 0.25 h
Liver microsomes [14] = experiment: Drug metabolism in rat liver microsomes assessed as 4-(4-(thiiran-2-ylmethylsulfonyl)phenoxy)benzaldehyde formation at 50 uM after 15 mins by tandem MS analysis; format: ADME, Microsome; conditions: 0.25 h
Liver microsomes [15] = experiment: Drug metabolism in rat liver microsomes assessed as 4-(4-(thiiran-2-ylmethylsulfonyl)phenoxy)benzoic acid formation at 50 uM after 15 mins by tandem MS analysis; format: ADME, Microsome; conditions: 0.25 h
Interstitial collagenase = target: T4, Interstitial collagenase (Homo sapiens, UniProt P03956)
T4 sequence (P03956 whole entry): T2 sequence (whole entry)
Description: Competitive inhibition of human MMP1 using fluorogenic substrate by Dixon plot analysis

Matrilysin = target: T5, Matrilysin (Homo sapiens, UniProt P09237)
T5 sequence (P09237 whole entry): T3 sequence (whole entry)
Description: Competitive inhibition of human MMP7 using fluorogenic substrate by Dixon plot analysis

[16] = target: T2, Interstitial collagenase (Homo sapiens); experiment: Competitive inhibition of human MMP1 using fluorogenic substrate at 50 uM by Dixon plot analysis
[17] = target: T3, Matrilysin (Homo sapiens); experiment: Competitive inhibition of human MMP7 using fluorogenic substrate at 75 uM by Dixon plot analysis

Structure (SMILES) | t1/2 (Liver) [min] | Ki [1] [nM] | Ki (Stromelysin-1 [2]) [µM] | inhibition [5] | Ki [6] [nM] | Ki [7] [nM] | also measured
O=S(=O)(CC1CS1)c1ccc(Oc2ccccc2)cc1 (stereo not given) | 4.4 | 37 |  |  |  |  | 
CS(=O)(=O)Oc1ccc(Oc2ccc(S(=O)(=O)CC3CS3)cc2)cc1 (racemic) | 27 |  | 0.575 |  |  |  | 
O=S(=O)(CC1CS1)c1ccc(Oc2ccc(F)cc2)cc1 (racemic) | 3.7 | 580 |  | 9% | 61 | 44 | inhibition [3]: inactive; inhibition (Stromelysin-1 [4]): 50%
O=S(=O)(CC1CS1)c1ccc(Oc2cccc(F)c2)cc1 (racemic) | 2.9 | 190 | 27 |  | 450 | 3000 | inhibition [8]: 7%; inhibition [9]: inactive
O=S(=O)(CC1CS1)c1ccc(Oc2ccc(I)cc2)cc1 (racemic) | 7.2 |  |  |  | 600 | 290 | inhibition [10]: inactive; inhibition (Stromelysin-1 [11]): 18%; inhibition [12]: inactive
O=S(=O)(CC1CS1)c1ccc(Oc2ccc(CO)cc2)cc1 (racemic) | 13 | 215 | 4.1 |  | 78 | 390 | Drug metabolism (Liver microsomes [13]): Active; Drug metabolism (Liver microsomes [14]): Active; Drug metabolism (Liver microsomes [15]): Active; Ki (Interstitial collagenase): 205 µM; Ki (Matrilysin): 48.5 µM
O=S(=O)(CC1CS1)c1ccc(Oc2ccc(O)cc2)cc1 (racemic) | 23 | 90 | 2.2 |  | 6 |  | Ki (Interstitial collagenase): 128 µM; Ki (Matrilysin): 31 µM
CC(C)Oc1ccc(Oc2ccc(S(=O)(=O)CC3CS3)cc2)cc1 (racemic) |  | 280 | 17 | 30% | 300 | 470 | inhibition [16]: 11%
COCOc1ccc(Oc2ccc(S(=O)(=O)CC3CS3)cc2)cc1 (racemic) | 7.7 | 140 | 12 |  | 180 | 160 | inhibition [8]: 6%; inhibition [17]: 19%
O=S(=O)(CC1CS1)c1ccc(Oc2ccc(OC(F)(F)F)cc2)cc1 (racemic) | 7.3 | 5080 |  | inactive | 110 | 930 | inhibition [3]: 3%; inhibition (Stromelysin-1 [4]): 14%

From ChEMBL document CHEMBL2062392, “Structure-Activity Relationship for Thiirane-Based Gelatinase Inhibitors” (ACS Med Chem Lett, 2012)
